Consider 19 molecules from patent US20140309265A1, “MACROCYCLIC COMPOUNDS FOR INHIBITION OF INHIBITORS OF APOPTOSIS” (Ensemble Therapeutics, priority 2011, published 2014).

Assay [1] deals with T1, His-BIR2-3 (125-356, C202A/C213G, XIAP) (Homo sapiens, UniProt P98170, C202A/C213G).
T1 construct: additions of His-BIR2-3 (125-356, C202A/C213G, XIAP), fluorescein labeled dimeric SMAC peptide
In words: XIAP-BIR2-3 Dimeric SMAC Peptide Homogeneous Time Resolved Fluorescence (HTRF) Assay. Format: binding. To be noted: XIAP BIR2-3, HTRF, Table 4.

Assay [2] addresses T2, His-BIR3 (241-356, XIAP) (Homo sapiens, UniProt P98170).
T2 construct: additions of His-BIR3 (241-356, XIAP), fluorescein labeled SMAC peptide
As to the kind of experiment: XIAP-BIR3/SMAC Homogeneous Time Resolved Fluorescence (HTRF) Assay. To be noted: Table 4. Format: binding. (In TR-FRET formats the signal depends on donor and acceptor labels being close together.)

T1 sequence (P98170 125-356 C202A/C213G): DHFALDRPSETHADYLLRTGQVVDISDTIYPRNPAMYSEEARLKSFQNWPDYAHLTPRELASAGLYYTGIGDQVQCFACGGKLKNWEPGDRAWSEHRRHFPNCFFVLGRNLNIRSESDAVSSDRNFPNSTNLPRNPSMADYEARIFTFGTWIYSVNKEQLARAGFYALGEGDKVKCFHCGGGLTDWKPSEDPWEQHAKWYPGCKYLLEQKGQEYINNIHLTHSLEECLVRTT
T2 sequence (P98170 241-356): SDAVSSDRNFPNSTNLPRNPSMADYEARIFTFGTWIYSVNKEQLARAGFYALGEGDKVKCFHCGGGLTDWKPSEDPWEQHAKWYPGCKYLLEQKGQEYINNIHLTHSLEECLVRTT

`CN[C@@H](C)C(=O)N[C@H](C(=O)N1CCN2C[C@H]1C(=O)N[C@@H](Cc1ccc3ccccc3c1)C(=O)N[C@H](C(=O)O)Cc1cn(nn1)CC(=O)N1CCN(C(=O)[C@@H](NC(=O)[C@H](C)NC)C(C)(C)C)[C@@H](C1)C(=O)N[C@@H](Cc1ccc3ccccc3c1)C(=O)N[C@H](C(=O)O)Cc1cn(nn1)CC2=O)C(C)(C)C` [Compound 1051]: the results for the IC50 in assay [1] and in assay [2] were above 10 nM and above 100 nM, respectively.
The like results for `CN[C@@H](C)C(=O)N[C@H](C(=O)N1C[C@@H]2C[C@H]1C(=O)N[C@@H](Cc1ccc3ccccc3c1)C(=O)N[C@H](C(=O)O)Cc1ccc(cc1)OCc1cn(nn1)[C@H]1C[C@@H](C(=O)N[C@@H](Cc3ccc4ccccc4c3)C(=O)N[C@H](C(=O)NCc3cc(F)c(O)c(F)c3)Cc3ccc(cc3)OCc3cn2nn3)N(C(=O)[C@@H](NC(=O)[C@H](C)NC)C(C)(C)C)C1)C(C)(C)C` [Compound 1041] were, in that order, 1 to 10 nM and 10 to 100 nM.
The like results for `CN[C@@H](C)C(=O)N[C@H](C(=O)N1C[C@@H]2C[C@H]1C(=O)N[C@@H](Cc1ccc3ccccc3c1)C(=O)N[C@H](C(=O)O)Cc1ccc(cc1)OCc1cn(nn1)[C@H]1C[C@@H](C(=O)N[C@@H](Cc3ccc4ccccc4c3)C(=O)N[C@H](C(=O)OC)Cc3ccc(cc3)OCc3cn2nn3)N(C(=O)[C@@H](NC(=O)[C@H](C)NC)C(C)(C)C)C1)C(C)(C)C` [Compound 1001] were, in that order, above 10 nM and above 100 nM.
The like results for `CN[C@@H](C)C(=O)N[C@H](C(=O)N1C[C@@H]2C[C@H]1C(=O)N[C@@H](Cc1ccc3ccccc3c1)C(=O)N[C@H](C(=O)O)Cc1ccc(cc1)OCc1cn(nn1)[C@H]1C[C@@H](C(=O)N[C@@H](Cc3ccc4ccccc4c3)C(=O)N[C@H](C(=O)NS(=O)(=O)c3ccncc3)Cc3ccc(cc3)OCc3cn2nn3)N(C(=O)[C@@H](NC(=O)[C@H](C)NC)C(C)(C)C)C1)C(C)(C)C` [Compound 1046] were, in that order, at most 1 nM and below 10 nM.
For `CN[C@@H](C)C(=O)N[C@H](C(=O)N1C[C@@H]2C[C@H]1C(=O)N[C@@H](Cc1ccc3ccccc3c1)C(=O)N[C@H](C(=O)O)Cc1ccc(cc1)OCc1cn(nn1)[C@H]1C[C@@H](C(=O)N[C@@H](Cc3ccc4ccccc4c3)C(=O)N[C@H](C(=O)N[C@@H](C)C(=O)O)Cc3ccc(cc3)OCc3cn2nn3)N(C(=O)[C@@H](NC(=O)[C@H](C)NC)C(C)(C)C)C1)C(C)(C)C` [Compound 1033], the IC50 in assay [1] was 1 to 10 nM; in assay [2], below 10 nM.
Consider `CN[C@@H](C)C(=O)N[C@H](C(=O)N1C[C@@H]2C[C@H]1C(=O)N[C@@H](Cc1ccc3ccccc3c1)C(=O)N[C@H](C(=O)O)Cc1ccc(cc1)OCc1cn(nn1)[C@H]1C[C@@H](C(=O)N[C@@H](Cc3ccc4ccccc4c3)C(=O)N[C@H](c3n[nH]oc3=O)Cc3ccc(cc3)OCc3cn2nn3)N(C(=O)[C@@H](NC(=O)[C@H](C)NC)C(C)(C)C)C1)C(C)(C)C` [Compound 1043], for which the IC50 is 1 to 10 nM in assay [1] and 10 to 100 nM in assay [2].
The like results for `CN[C@@H](C)C(=O)N[C@H](C(=O)N1C[C@@H]2C[C@H]1C(=O)N[C@@H](Cc1ccc3ccccc3c1)C(=O)N[C@H](C(=O)O)Cc1ccc(cc1)OCc1cn(nn1)[C@H]1C[C@@H](C(=O)N[C@@H](Cc3ccc4ccccc4c3)C(=O)N[C@H](C(=O)NCCC(=O)O)Cc3ccc(cc3)OCc3cn2nn3)N(C(=O)[C@@H](NC(=O)[C@H](C)NC)C(C)(C)C)C1)C(C)(C)C` [Compound 1019] were, in that order, 1 to 10 nM and below 10 nM.
As for `CN[C@@H](C)C(=O)N[C@H](C(=O)N1C[C@@H]2C[C@H]1C(=O)N[C@@H](Cc1ccc3ccccc3c1)C(=O)N[C@H](C(=O)O)Cc1ccc(cc1)OCc1cn(nn1)[C@H]1C[C@@H](C(=O)N[C@@H](Cc3ccc4ccccc4c3)C(=O)N[C@H](C(=O)N3CCC(C(=O)O)CC3)Cc3ccc(cc3)OCc3cn2nn3)N(C(=O)[C@@H](NC(=O)[C@H](C)NC)C(C)(C)C)C1)C(C)(C)C` [Compound 1027], the IC50 in assay [1] is 1 to 10 nM; in assay [2], 10 to 100 nM.
With `CN[C@@H](C)C(=O)N[C@H](C(=O)N1C[C@@H]2C[C@H]1C(=O)N[C@@H](Cc1ccc3ccccc3c1)C(=O)N[C@H](C(=O)O)Cc1ccc(cc1)-c1cn(nn1)[C@H]1C[C@@H](C(=O)N[C@@H](Cc3ccc4ccccc4c3)C(=O)N[C@H](C(=O)O)Cc3ccc(cc3)OCc3cn2nn3)N(C(=O)[C@@H](NC(=O)[C@H](C)NC)C(C)(C)C)C1)C(C)(C)C` [Compound 1015], the IC50 in assay [1] is 1 to 10 nM; in assay [2], 10 to 100 nM.
As to `CN[C@@H](C)C(=O)N[C@H](C(=O)N1C[C@@H]2C[C@H]1C(=O)N[C@@H](Cc1ccc3ccccc3c1)C(=O)N[C@H](C(=O)O)Cc1ccc(cc1)OCc1cn(nn1)[C@H]1C[C@@H](C(=O)N[C@@H](Cc3ccc4ccccc4c3)C(=O)N[C@H](C(=O)NCc3nnn[nH]3)Cc3ccc(cc3)OCc3cn2nn3)N(C(=O)[C@@H](NC(=O)[C@H](C)NC)C(C)(C)C)C1)C(C)(C)C` [Compound 1022], the IC50 was 1 to 10 nM in assay [1] and below 10 nM in assay [2].
Regarding `CN[C@@H](C)C(=O)N[C@H](C(=O)N1C[C@@H]2C[C@H]1C(=O)N[C@@H](Cc1ccc3ccccc3c1)C(=O)N[C@H](C(=O)O)Cc1ccc(cc1)OCc1cn(nn1)[C@H]1C[C@@H](C(=O)N[C@@H](Cc3ccc4ccccc4c3)C(=O)N[C@H](C(=O)N(C)CCC(=O)O)Cc3ccc(cc3)OCc3cn2nn3)N(C(=O)[C@@H](NC(=O)[C@H](C)NC)C(C)(C)C)C1)C(C)(C)C` [Compound 1028], the results for the IC50 in assay [1] and in assay [2] were at most 1 nM and below 10 nM, respectively.
In the case of `CN[C@@H](C)C(=O)N[C@H](C(=O)N1C[C@@H]2C[C@H]1C(=O)N[C@@H](Cc1ccc3ccccc3c1)C(=O)N[C@H](C(=O)O)Cc1ccc(cc1)OCc1cn(nn1)[C@H]1C[C@@H](C(=O)N[C@@H](Cc3ccc4ccccc4c3)C(=O)N[C@H](C(=O)NS(=O)(=O)c3ccc4ccccc4c3)Cc3ccc(cc3)OCc3cn2nn3)N(C(=O)[C@@H](NC(=O)[C@H](C)NC)C(C)(C)C)C1)C(C)(C)C` [Compound 1039], the IC50 in assay [1] was in the range of 1 to 10 nM; in assay [2] it was 10 to 100 nM.
In the case of `CN[C@@H](C)C(=O)N[C@H](C(=O)N1C[C@@H]2C[C@H]1C(=O)N[C@@H](Cc1ccc3ccccc3c1)C(=O)N[C@H](C(=O)O)Cc1ccc(cc1)NC(=O)c1cn(nn1)[C@H]1C[C@@H](C(=O)N[C@@H](Cc3ccc4ccccc4c3)C(=O)N[C@H](C(=O)O)Cc3ccc(cc3)OCc3cn2nn3)N(C(=O)[C@@H](NC(=O)[C@H](C)NC)C(C)(C)C)C1)C(C)(C)C` [Compound 1014], the IC50 in assay [1] was at most 1 nM; in assay [2], below 10 nM.
Take `CN[C@@H](C)C(=O)N[C@H](C(=O)N1CCN2CCn3cc(nn3)C[C@@H](C(=O)OC)NC(=O)[C@H](Cc3ccc4ccccc4c3)NC(=O)[C@@H]3CN(CCN3C(=O)[C@@H](NC(=O)[C@H](C)NC)C(C)C)CCn3cc(nn3)C[C@@H](C(=O)O)NC(=O)[C@H](Cc3ccc4ccccc4c3)NC(=O)[C@@H]1C2)C(C)C` [Compound 1049]: the values for the IC50 in assay [1] and in assay [2] were 1 to 10 nM and above 100 nM, respectively.
The like results for `CN[C@@H](C)C(=O)N[C@H](C(=O)N1C[C@@H]2C[C@H]1C(=O)N[C@@H](Cc1ccc3ccccc3c1)C(=O)N[C@H](C(=O)O)Cc1ccc(cc1)OCc1cn(nn1)[C@H]1C[C@@H](C(=O)N[C@@H](Cc3ccc4ccccc4c3)C(=O)N[C@H](c3nnn[nH]3)Cc3ccc(cc3)OCc3cn2nn3)N(C(=O)[C@@H](NC(=O)[C@H](C)NC)C(C)(C)C)C1)C(C)(C)C` [Compound 1048] were, in that order, at most 1 nM and below 10 nM.
On to `CN[C@@H](C)C(=O)N[C@H](C(=O)N1C[C@@H]2C[C@H]1C(=O)N[C@@H](Cc1ccc3ccccc3c1)C(=O)N[C@H](C(=O)O)Cc1ccc(cc1)OCc1cn(nn1)[C@H]1C[C@@H](C(=O)N[C@@H](Cc3ccc4ccccc4c3)C(=O)N[C@H](C(=O)NCc3ccc(-c4nnn[nH]4)cc3)Cc3ccc(cc3)OCc3cn2nn3)N(C(=O)[C@@H](NC(=O)[C@H](C)NC)C(C)(C)C)C1)C(C)(C)C` [Compound 1023], for which the IC50 in assay [1] is 1 to 10 nM; in assay [2], below 10 nM.
The like results for `CN[C@@H](C)C(=O)N[C@H](C(=O)N1C[C@@H]2C[C@H]1C(=O)N[C@@H](Cc1ccc3ccccc3c1)C(=O)N[C@H](C(=O)O)Cc1ccc(cc1)OCc1cn(nn1)[C@H]1C[C@@H](C(=O)N[C@@H](Cc3ccc4ccccc4c3)C(=O)N[C@H](C(=O)O)Cc3ccc(cc3)NC(=O)CCc3cn2nn3)N(C(=O)[C@@H](NC(=O)[C@H](C)NC)C(C)(C)C)C1)C(C)(C)C` [Compound 1016] were, in that order, at most 1 nM and below 10 nM.
For `CN[C@@H](C)C(=O)N[C@H](C(=O)N1C[C@@H]2C[C@H]1C(=O)N[C@@H](Cc1ccc3ccccc3c1)C(=O)N[C@H](C(=O)O)Cc1ccc(cc1)OCc1cn(nn1)[C@H]1C[C@@H](C(=O)N[C@@H](Cc3ccc4ccccc4c3)C(=O)N[C@H](C(=O)N[C@@H](CC(=O)O)C(=O)N[C@H](CCSC)C(=O)O)Cc3ccc(cc3)OCc3cn2nn3)N(C(=O)[C@@H](NC(=O)[C@H](C)NC)C(C)(C)C)C1)C(C)(C)C` [Compound 1038], the IC50 in assay [1] was above 10 nM; in assay [2] it was 10 to 100 nM.
With `CN[C@@H](C)C(=O)N[C@H](C(=O)N1C[C@@H]2C[C@H]1C(=O)N[C@@H](Cc1ccc3ccccc3c1)C(=O)N[C@H](C(=O)O)Cc1ccc(cc1)OCc1cn(nn1)[C@H]1C[C@@H](C(=O)N[C@@H](Cc3ccc4ccccc4c3)C(=O)N[C@H](C(=O)N(C)C)Cc3ccc(cc3)OCc3cn2nn3)N(C(=O)[C@@H](NC(=O)[C@H](C)NC)C(C)(C)C)C1)C(C)(C)C` [Compound 1024], the results for the IC50 in assay [1] and in assay [2] were 1 to 10 nM and below 10 nM, respectively.

By IC50 is commonly meant the concentration at which inhibition is half-maximal. Read a high IC50 as lower potency.
